± gives the standard deviation of the averaged measurements.
What was measured:
Assay in all cases: level (log10 ratio to DMSO vehicle control); higher = higher biomarker level / cell amount than vehicle control
[1] = compound: C=C(C)C(=O)OCCC(F)(F)C(F)(F)C(F)(F)C(F)(F)C(F)(F)C(F)(F)C(F)(F)C(F)(F)F [8:2 Fluorotelomer methacrylate] (in DMSO)
Procedure: (§1)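 BioMAP Diversity Plus panel of 12 human primary cell co-culture systems (3C, 4H, LPS, SAg, BT, BF4T, BE3C, CASM3C, HDF3CGF, KF3CT, MyoF, Mphg). Compounds were added 1 h before stimulation and left for 24 h (MyoF 48 h; BT 72 h for soluble read-outs or 6 d for IgG). Biomarkers were read by ELISA, cytotoxicity by SRB, PBMC viability and proliferation by Alamar Blue. Each well value was divided by the mean of 8 DMSO control wells on the same plate and log10 transformed; duplicate blinded samples were tested at 4 concentrations.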

[2] = compound: CCOC(=O)CC(=O)C(F)(F)C(F)(F)F [Ethyl pentafluoropropionyl acetate] (in DMSO)
Procedure: as §1

[3] = compound: O=C(O)C(F)(F)C(F)(F)C(F)(F)C(F)(F)C(=O)O [Octafluoroadipic acid] (in DMSO)
Procedure: as §1

[4] = compound: O=C(O)C(F)(F)OC(F)(F)C(F)(F)OC(F)(F)C(F)(F)OC(F)(F)C(F)(F)C(F)(F)C(F)(F)F [Perfluoro-3,6,9-trioxatridecanoic acid] (in DMSO); settings: 6700 nM
Procedure: as §1

[5] = compound: O=C(O)CCC(F)(C(F)(F)F)C(F)(F)F [4,4-bis(Trifluoromethyl)-4-fluoropropanoic acid] (in DMSO)
Procedure: as §1

[6] = compound: O=S(=O)(O)C(F)(F)C(F)(F)C(F)(F)C(F)(F)C(F)(F)C(F)(F)C(F)(F)F [Perfluoroheptanesulfonic acid] (in DMSO)
Procedure: as §1

[7] = compound: OCC(F)(F)C(F)(F)C(F)(F)C(F)F [1H,1H,5H-Perfluoropentanol] (in DMSO)
Procedure: as §1

| Test System | level (log10) ([1]; 6700 nM) | level (log10) ([1]; 20000 nM) | level (log10) ([2]; 6700 nM) | level (log10) ([2]; 20000 nM) | level (log10) ([2]; 60000 nM) | level (log10) ([3]; 6700 nM) | level (log10) ([3]; 20000 nM) | level (log10) ([3]; 60000 nM) | level (log10) [4] | level (log10) ([5]; 6700 nM) | level (log10) ([5]; 20000 nM) | level (log10) ([5]; 60000 nM) | level (log10) ([6]; 1500 nM) | level (log10) ([6]; 4400 nM) | level (log10) ([6]; 13000 nM) | level (log10) ([6]; 40000 nM) | level (log10) ([7]; 6700 nM) | level (log10) ([7]; 20000 nM) | level (log10) ([7]; 60000 nM) |
| --- | --- | --- | --- | --- | --- | --- | --- | --- | --- | --- | --- | --- | --- | --- | --- | --- | --- | --- | --- |
| SAg:CD69 | -0.013 ± 0.016 | -0.022 ± 0.013 | 0.0075 ± 0.026 | -0.0015 ± 0.029 | 0.019 ± 0.05 | 0.0345 ± 0.073 | 0.0345 ± 0.056 | 0.0315 ± 0.054 | -0.0065 ± 0.0021 | -0.0395 ± 0.0021 | -0.0205 ± 0.00071 | -0.0515 ± 0.046 | -0.0145 ± 0.029 | -0.0175 ± 0.012 | -0.004 ± 0.03 | 0.0045 ± 0.013 | -0.015 ± 0.018 | 0.0185 ± 0.0092 | 0.0045 ± 0.023 |
| SAg:CXCL8/IL-8 | -0.0215 ± 0.047 | 0.007 ± 0.021 | -0.023 ± 0.016 | -0.0475 ± 0.032 | -0.007 ± 0.085 | 0.014 ± 0.018 | 0.01 ± 0.013 | 0.018 ± 0.031 | -0.023 ± 0.011 | 0.027 ± 0.035 | 0.0095 ± 0.064 | 0.019 ± 0.079 | 0.0205 ± 0.12 | -0.04 ± 0.075 | -0.001 ± 0.045 | 0.0455 ± 0.047 | 0.006 ± 0.033 | -0.0065 ± 0.00071 | 0.0275 ± 0.052 |
| SAg:CXCL9/MIG | 0.001 ± 0.0099 | 0.002 ± 0.0014 | -0.001 ± 0.011 | -0.015 ± 0.0099 | 0.0065 ± 0.0021 | -0.0075 ± 0.016 | 0.005 ± 0.0028 | 0.011 ± 0.0057 | -0.001 ± 0.0014 | 0.0015 ± 0.0064 | 0.008 ± 0.0042 | 0.0035 ± 0.00071 | -0.0015 ± 0.0092 | -0.002 ± 0.018 | -0.004 ± 0.0085 | 0.008 | -0.0105 ± 0.00071 | 0.0005 ± 0.013 | 0.008 ± 0.023 |
| SAg:PBMC Cytotoxicity | -0.0215 ± 0.012 | 0.018 ± 0.011 | -0.0055 ± 0.032 | -0.005 ± 0.025 | -0.0015 ± 0.021 | 0.0085 ± 0.0064 | -0.0165 ± 0.042 | 0.0155 ± 0.00071 | -0.003 ± 0.037 | 0.004 ± 0.0042 | -0.0015 ± 0.0092 | 0.008 ± 0.027 | 0.026 ± 0.016 | -0.022 ± 0.033 | -0.0335 ± 0.00071 | 0.01 ± 0.033 | -0.005 ± 0.0042 | 0.0025 ± 0.013 | 0.035 ± 0.058 |
| SAg:Proliferation | -0.0045 ± 0.053 | 0.052 ± 0.0028 | 0.001 ± 0.065 | -0.004 ± 0.025 | 0.0315 ± 0.047 | -0.021 ± 0.016 | -0.0095 ± 0.0092 | -0.0065 ± 0.059 | -0.0295 ± 0.042 | 0.007 ± 0.051 | -0.03 ± 0.044 | 0.0375 ± 0.053 | 0.0105 ± 0.026 | 0.0125 ± 0.029 | -0.024 ± 0.037 | 0.0325 ± 0.019 | -0.0155 ± 0.011 | -0.0635 ± 0.016 | 0.025 ± 0.055 |
| SAg:SRB | -0.009 ± 0.0014 | -0.011 ± 0.018 | 0 ± 0.0057 | 0.004 | -0.003 ± 0.02 | -0.01 ± 0.016 | -0.008 ± 0.014 | -0.012 ± 0.0014 | 0.0015 ± 0.013 | -0.0035 ± 0.0078 | 0.006 ± 0.0042 | 0.003 ± 0.016 | -0.015 ± 0.0057 | -0.0125 ± 0.00071 | -0.0005 ± 0.012 | -0.0025 ± 0.013 | -0.0075 ± 0.0021 | -0.009 ± 0.0014 | 0.001 ± 0.0085 |

From the supplement of paper PMC10331698
